Measured values reported in patent publication US6368651B1, “Use of additives to modify the taste characteristics of N-neohexyl-α-aspartyl-L-phenylalanine methyl ester” (The NutraSweet Company, priority 1999, dated 2002).
Counter-ions that a name gives are not always drawn. Where a SMILES comes first, the peptide text is derived from it.

Experiments:
[1] = Taste evaluation of solid tabletop sweetener in whitened, brewed coffee beverage; conditions: for effectiveness as taste modifying ingredient: tabletop sweetener in a whitened coffee beverage, concentration not given
Experimental: The following examples 51-78 are directed to solid tabletop sweetener preparations, specifically sachet or packet preparations, comprising mixtures of neotame, one or more taste modifying ingredients and a bulking agent. Taste evaluations were conducted on sweetened coffee or tea beverages prepared by dissolving the solid tabletop sweetener (total weight of 1.00 g) in a cup of brewed coffee or tea. The concentration of the ingredients in the tabletop sweetener is expressed as a percentage by weight, whereas the concentration of the ingredients in the beverage is expressed as parts per million (ppm) or parts per trillion (ppt). The beverages were prepared such that the concentration of neotame in sweetened, whitened coffee beverage was approximately 3-5 ppm and the concentration of neotame in sweetened tea was approximately 5-7 ppm.

[2] = Taste evaluation in neotame-sweetened cola-flavored beverage; conditions: for taste characteristic imparted by neotame / taste of beverage across tested concentrations / taste compared to neotame-sweetened cola-flavored beverage: cola; for effectiveness as taste modifying ingredient: test cola-beverage formulation, concentration not given
Experimental: When a neotame salt was used as a taste modifying/sweetening ingredient, the neotame salt as added in an amount sufficient to provide about 15 ppm to about 25 ppm neotame (e.g., about 0.0028 g of a potassium neotame salt would be used to provide 100 ml of a 25 ppm neotame solution). The taste modifying ingredient was dissolved in the sweetened beverage and the beverage was allowed to stand overnight at room temperature prior to evaluation. Evaluations of the cola-flavored beverages were conducted using a beverage containing water, sodium benzoate (0.16%), phosphoric acid (0.22%), citric acid (0.05%), trisodium citrate (0.08%), caffeine (0.03%), Flavor 28 (1.72%), sweetened with neotame in an amount of about 0.0015% to about 0.0025% (15 ppm to 25 ppm), adjusted to pH 3.2 using sodium citrate.

[3] = on a weight basis; cited from earlier work
[4] = Taste evaluation in neotame-sweetened reconstituted powdered soft drink
[5] = Taste evaluation in neotame-sweetened hot cocoa beverage
[6] = Taste evaluation in neotame-sweetened gelatin dessert; conditions: glycerin 8.4 ppm
[7] = Taste evaluation in neotame-sweetened strawberry-flavored yogurt; conditions: serine 25 ppm

## beta cyclodextrin-neotame complex
[1]; beta cyclodextrin-neotame complex 1.409% by weight (beverage 58.7 ppm, neotame 3.3 ppm), Unidex
  taste characteristic imparted by neotame: positively affected

## OC[C@@H](O)[C@@H](O)CO [erythritol]
[2]; erythritol 200 ppm to 10,000 ppm
  taste characteristic imparted by neotame: positively affected

## COC(=O)[C@H](Cc1ccccc1)NC(=O)[C@H](CC(=O)O)NCCC(C)(C)C [neotame, N-[N-(3,3-dimethylbutyl)-L-α-aspartyl]-L-phenylalanine 1-methyl ester]
[3]
  sweetness relative to sucrose: approximately 8,000 times as sweet as sucrose

## Cn1c(=O)c2c(ncn2C)n(C)c1=O [caffeine]
[2]; caffeine 140 to 425 ppm
  taste characteristic imparted by neotame: positively affected

## thaumatin
[1]; thaumatin 0.12% by weight (beverage 5.0 ppm), neotame 3.75 ppm, Unidex
  taste characteristic imparted by neotame: positively affected

## polysorbate 60
[2]; polysorbate 60 10 to 15 ppm
  taste characteristic imparted by neotame: positively affected
[1]; polysorbate 60 0.05% to 0.10% by weight (beverage 2.08 to 4.2 ppm), neotame 3.75 ppm, Unidex
  taste characteristic imparted by neotame: positively affected
[1]
  effectiveness as taste modifying ingredient: effective

## COC(=O)[C@H](Cc1ccccc1)NC(=O)[C@@H](N)CC(=O)O [aspartame] (H-Asp-Phe-OMe)
[2]; aspartame 20 to 40 ppm
  taste characteristic imparted by neotame: positively affected
[4]; aspartame 100 to 160 ppm, reconstituted punch or lemonade-flavored powdered soft drink
  taste characteristic imparted by neotame: positively affected
[5]; aspartame 100 ppm
  taste characteristic imparted by neotame: positively affected
[1]; aspartame 0.6% to 1.25% by weight (beverage 25 to 52 ppm), neotame 3.75 ppm, Unidex bulking agent
  taste characteristic imparted by neotame: positively affected

## polysorbate 80
[2]; polysorbate 80 10 to 15 ppm
  taste characteristic imparted by neotame: positively affected
[1]
  effectiveness as taste modifying ingredient: effective

## OC[C@@H](O)[C@@H](O)[C@H](O)[C@@H](O)CO [sorbitol]
[2]
  effectiveness as taste modifying ingredient: ineffective

## [Ca+2].[Cl-].[Cl-] [calcium chloride]
[1]; calcium chloride 0.072% by weight (beverage 3 ppm), neotame 3.75 ppm, Unidex
  taste characteristic imparted by neotame: positively affected

## COC(=O)[C@H](Cc1ccccc1)NC(=O)[C@H](CC(=O)[O-])NCCC(C)(C)C.[Na+] [sodium-neotame salt]
[1]; sodium-neotame salt 0.09% by weight (beverage 3.75 ppm), Unidex
  taste characteristic imparted by neotame, compared to neotame-sweetened coffee beverage: positively affected

## C[C@@H](O)[C@H](N)C(=O)O [threonine]
[2]; threonine 5 ppm to 30 ppm
  taste characteristic imparted by neotame: positively affected

## C[C@@H]1O[C@@H](O[C@H]2[C@H](Oc3cc(O)c4c(c3)O[C@H](c3ccc(O)cc3)CC4=O)O[C@H](CO)[C@@H](O)[C@@H]2O)[C@H](O)[C@H](O)[C@H]1O [naringin]
[2]
  effectiveness as taste modifying ingredient: ineffective

## [Cl-].[K+] [potassium chloride]
[2]
  effectiveness as taste modifying ingredient: ineffective

## OC[C@H]1O[C@@](CO)(O[C@H]2O[C@H](CO)[C@@H](O)[C@H](O)[C@H]2O)[C@@H](O)[C@@H]1O [sucrose]
[2]; sucrose 2000 ppm to 4000 ppm
  taste characteristic imparted by neotame: positively affected

## O=C1NS(=O)(=O)c2ccccc21 [saccharin]
[2]; saccharin 20 to 150 ppm
  taste characteristic imparted by neotame: positively affected
[2]; saccharin 100 ppm
  taste of beverage across tested concentrations: best tasting beverage
[4]; saccharin 20 to 40 ppm, reconstituted punch or lemonade-flavored powdered soft drink
  taste characteristic imparted by neotame: positively affected
[5]; saccharin 20 to 40 ppm
  taste characteristic imparted by neotame: positively affected
[1]; saccharin 1.32% by weight (beverage 5.5 ppm), neotame 3.75 ppm, Unidex
  taste characteristic imparted by neotame: positively affected

## Neotame-monopotassium phosphate
[2]
  effectiveness as taste modifying ingredient: ineffective

## OC[C@@H](O)[C@@H](O)[C@H](O)[C@H](O)CO [mannitol]
[2]; mannitol 100 ppm to 2,000 ppm
  taste characteristic imparted by neotame: positively affected

## COC(=O)[C@H](Cc1ccccc1)NC(=O)[C@H](CC(=O)[O-])NCCC(C)(C)C.COC(=O)[C@H](Cc1ccccc1)NC(=O)[C@H](CC(=O)[O-])NCCC(C)(C)C.[Ca+2] [calcium-neotame salt]
[2]; calcium-neotame salt as sweetener
  taste compared to neotame-sweetened cola-flavored beverage: improved taste
[1]; calcium-neotame salt 0.056% by weight (beverage 2.33 ppm), Unidex
  taste characteristic imparted by neotame, compared to neotame-sweetened coffee beverage: positively affected

## OCC(O)CO [glycerol]
[2]; glycerol 15 ppm to 2,000 ppm
  taste characteristic imparted by neotame: positively affected
[4]; glycerin 4 to 35 ppm, reconstituted punch-flavored powdered soft drink
  taste characteristic imparted by neotame: positively affected
[6]
  taste characteristic imparted by neotame: positively affected
[1]; glycerol 0.04% to 0.2% by weight (beverage 1.7 to 8.3 ppm), neotame 3.3 ppm, Unidex
  taste characteristic imparted by neotame: positively affected

## C=C[C@H]1C[N@@]2CC[C@H]1C[C@H]2[C@H](O)c1ccnc2ccc(OC)cc12 [quinine sulfate]
[2]; quinine sulfate 0.01 to 1 ppm
  taste characteristic imparted by neotame: positively affected

## COC(=O)[C@H](Cc1ccccc1)NC(=O)[C@H](CC(=O)[O-])NCCC(C)(C)C.[K+] [potassium-neotame salt]
[2]; potassium-neotame salt as sweetener
  taste compared to neotame-sweetened cola-flavored beverage: improved taste
[1]; potassium-neotame salt 0.11% by weight (beverage 4.58 ppm), Unidex
  taste characteristic imparted by neotame, compared to neotame-sweetened coffee beverage: positively affected

## N[C@@H](CO)C(=O)O [serine]
[2]; serine 50 ppm
  taste characteristic imparted by neotame: positively affected
[4]; serine 5 ppm to 30 ppm, reconstituted strawberry-flavored powdered soft drink
  taste characteristic imparted by neotame: positively affected
[7]
  taste characteristic imparted by neotame: positively affected

## CC1(C)[C@@H](O[C@H]2O[C@H](C(=O)O)[C@@H](O)[C@H](O)[C@H]2O[C@@H]2O[C@H](C(=O)O)[C@@H](O)[C@H](O)[C@H]2O)CC[C@]2(C)[C@H]3C(=O)C=C4[C@@H]5C[C@@](C)(C(=O)O)CC[C@]5(C)CC[C@@]4(C)[C@]3(C)CC[C@@H]12.N [monoammonium glycyrrhizinate]
[2]; monoammonium glycyrrhizinate 0.25 ppm
  taste characteristic imparted by neotame: positively affected

## CC1=CC(=O)NS(=O)(=O)O1.COC(=O)C(Cc1ccccc1)NC(=O)C(CC(=O)O)NCCC(C)(C)C (centres unmarked) [acesulfame-neotame salt]
[2]; acesulfame-neotame salt 40 ppm
  taste compared to neotame-sweetened cola-flavored beverage: improved taste

## neotame-phosphate salt
[2]; neotame-phosphate salt as sweetener
  taste compared to neotame-sweetened cola-flavored beverage: improved taste

## CCc1occc(=O)c1O [ethyl maltol]
[1]; ethyl maltol 0.0482% by weight (beverage 2 ppm), neotame 3.75 ppm, Unidex
  taste characteristic imparted by neotame: positively affected

## [Cl-].[Na+] [sodium chloride]
[2]; sodium chloride 5 to 50 ppm
  taste characteristic imparted by neotame: positively affected
[2]; sodium chloride 10 ppm
  taste of beverage across tested concentrations: best tasting beverage

## COc1cc(C=O)ccc1O [vanillin]
[4]; vanillin 0.5 ppm, reconstituted punch and lemonade-flavored soft drinks
  taste characteristic imparted by neotame: positively affected

## COc1ccc(CCC(=O)c2c(O)cc(O[C@@H]3O[C@H](CO)[C@@H](O)[C@H](O)[C@H]3O[C@@H]3O[C@@H](C)[C@H](O)[C@@H](O)[C@H]3O)cc2O)cc1O [neohesperidin dihydrochalcone]
[2]; NHDC 3 ppm
  taste characteristic imparted by neotame: positively affected
[4]; neohesperidin dihydrochalcone 2 to 3 ppm, reconstituted punch or lemonade flavored powdered soft drinks
  taste characteristic imparted by neotame: positively affected
[5]; neohesperidin dihydrochalcone 2 to 3 ppm
  taste characteristic imparted by neotame: positively affected
[1]; neohesperidin dihydrochalcone 0.040% to 0.048% by weight (beverage 1.68 to 2.0 ppm), neotame 3.75 ppm, Unidex
  taste characteristic imparted by neotame: positively affected

## OC[C@@H](O)[C@H](O)[C@@H](O)CO [xylitol]
[2]
  effectiveness as taste modifying ingredient: ineffective

## neotame-monocalcium phosphate
[2]
  effectiveness as taste modifying ingredient: ineffective

## Cc1occc(=O)c1O [maltol]
[1]; maltol 0.035% by weight (beverage 1.44 ppm), neotame 3.75 ppm, Unidex
  taste characteristic imparted by neotame: positively affected

## COC1=C(C)OC(C)C1=O (centres unmarked) [Mesifuran]
[2]
  effectiveness as taste modifying ingredient: not an effective taste modifying ingredient

## polysorbate 65
[2]; polysorbate 65 10 to 15 ppm
  taste characteristic imparted by neotame: positively affected

## CC1=CC(=O)[N-]S(=O)(=O)O1.[K+] [acesulfame-K]
[2]; acesulfame-K 20 to 40 ppm, neotame 15-25 ppm
  taste characteristic imparted by neotame: positively affected
[4]; acesulfame-K 40 to 100 ppm, reconstituted punch or lemonade-flavored powdered soft drink
  taste characteristic imparted by neotame: positively affected
[5]; acesulfame-K 40 to 100 ppm
  taste characteristic imparted by neotame: positively affected

## N[C@@H](Cc1ccc(O)cc1)C(=O)O [L-tyrosine]
[2]; L-tyrosine 15 to 50 ppm
  taste characteristic imparted by neotame: positively affected
[4]; tyrosine 35 ppm, reconstituted punch-flavored powdered soft drink
  taste characteristic imparted by neotame: positively affected
[1]; L-tyrosine 0.288% by weight (beverage 12 ppm), neotame 3.75 ppm, Unidex
  taste characteristic imparted by neotame: positively affected
